Measurements reported in ChEMBL document CHEMBL3739381, “Evaluation of the anti-inflammatory/chondroprotective activity of aldose reductase inhibitors in human chondrocyte cultures” (Medchemcomm, 2015).
Activity calls are given as the source filed them. The rule behind the calls is not given here.

How the values were obtained:
Homo sapiens [1] = species on record: Homo sapiens; experiment: Anti-inflammatory in human articular chondrocytes assessed as inhibition of IL-1beta-induced nitrite production after 72 hrs by Griess assay; assay type: functional, cell-based
Homo sapiens [2] = species on record: Homo sapiens; experiment: Anti-inflammatory in human articular chondrocytes assessed as inhibition of IL-1beta-induced NFkappa-B p65 production at 2.5 to 10 uM after 72 hrs by Western blot analysis; assay type: functional, cell-based
Collagenase 3 = Collagenase 3 (Homo sapiens, UniProt P45452); experiment: Inhibition of MMP13 (unknown origin) using Pro-Leu-Gly-Leu-Dpa-Ala-Arg-NH2 as substrate after 3 mins by fluorimetric assay
[3] = Cytotoxicity against human articular chondrocytes assessed as cell viability at 2.5 to 10 uM by MTT assay
Homo sapiens [4] = species on record: Homo sapiens; experiment: Anti-inflammatory in human articular chondrocytes assessed as inhibition of IL-1beta-induced ICAM-1 production at 2.5 to 10 uM after 72 hrs by Western blot analysis; assay type: functional, cell-based
[5] = Antioxidant activity of the compound in AAPH solution assessed as trolox equivalents for reduction of oxidative degradation by ORAC assay; assay type: physicochemical
Stromelysin-1 = Stromelysin-1 (Homo sapiens, UniProt P08254); experiment: Inhibition of MMP3 (unknown origin) using Pro-Leu-Gly-Leu-Dpa-Ala-Arg-NH2 as substrate after 3 mins by fluorimetric assay
Chain of Stromelysin-1 (P08254 whole entry): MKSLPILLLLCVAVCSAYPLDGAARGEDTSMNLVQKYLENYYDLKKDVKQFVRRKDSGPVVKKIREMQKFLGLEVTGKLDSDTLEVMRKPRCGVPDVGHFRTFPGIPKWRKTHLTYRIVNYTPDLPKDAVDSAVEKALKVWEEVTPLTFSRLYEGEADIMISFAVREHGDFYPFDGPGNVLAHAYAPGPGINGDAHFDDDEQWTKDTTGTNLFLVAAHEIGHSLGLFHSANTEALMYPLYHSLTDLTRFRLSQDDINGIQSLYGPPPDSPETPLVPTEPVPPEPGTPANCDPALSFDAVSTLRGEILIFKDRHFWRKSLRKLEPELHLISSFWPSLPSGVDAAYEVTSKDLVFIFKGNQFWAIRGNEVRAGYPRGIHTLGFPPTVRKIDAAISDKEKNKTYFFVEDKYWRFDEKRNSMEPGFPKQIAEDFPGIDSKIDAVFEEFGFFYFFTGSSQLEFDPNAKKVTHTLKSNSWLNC

Homo sapiens [6] = species on record: Homo sapiens; experiment: Anti-inflammatory in human articular chondrocytes assessed as inhibition of IL-1beta-induced reduction of GAG level after 72 hrs by spectrophotometry analysis; assay type: functional, cell-based

O=C(O)CN1C(=O)/C(=C/c2cccc(OCc3ccccc3)c2)SC1=S
inhibition (Homo sapiens [1]): Dose-dependent effect
inhibition (Homo sapiens [2]): Active
IC50 (Collagenase 3): 1.59 µM
Activity [3]: Non-toxic
inhibition (Homo sapiens [4]): Active
Activity [5]: 0.65 µM
IC50 (Stromelysin-1; read-out: IC50): 4.19 µM
inhibition (Homo sapiens [6]): Dose-dependent effect

O=C(O)CN1C(=O)/C(=C/c2ccc(Oc3ccccc3)cc2)SC1=S
inhibition (Homo sapiens [1]): Dose-dependent effect
inhibition (Homo sapiens [2]): Active
IC50 (Collagenase 3): 3.8 µM
Activity [3]: Non-toxic
inhibition (Homo sapiens [4]): Active
Activity [5]: 0.76 µM
IC50 (Stromelysin-1; read-out: IC50): 8.96 µM
inhibition (Homo sapiens [6]): Dose-dependent effect

O=C1NC(=S)S/C1=C\c1ccc(Oc2ccccc2)cc1
inhibition (Homo sapiens [1]): Dose-dependent effect
inhibition (Homo sapiens [2]): Active
IC50 (Collagenase 3): 3.99 µM
Activity [3]: Non-toxic
inhibition (Homo sapiens [4]): Active
Activity [5]: 0.52 µM
IC50 (Stromelysin-1; read-out: IC50): 48.4 µM
inhibition (Homo sapiens [6]): Dose-dependent effect

O=C(O)CN1C(=O)/C(=C/c2cccc(Oc3ccccc3)c2)SC1=S
inhibition (Homo sapiens [1]): Dose-dependent effect
inhibition (Homo sapiens [2]): Active
IC50 (Collagenase 3): 4.7 µM
Activity [3]: Non-toxic
inhibition (Homo sapiens [4]): Active
Activity [5]: 0.61 µM
IC50 (Stromelysin-1; read-out: IC50): 14.2 µM
inhibition (Homo sapiens [6]): Dose-dependent effect

O=C1NC(=S)S/C1=C\c1cccc(Oc2ccccc2)c1
inhibition (Homo sapiens [1]): Dose-dependent effect
inhibition (Homo sapiens [2]): Active
IC50 (Collagenase 3): 55.3 µM
Activity [3]: Non-toxic
inhibition (Homo sapiens [4]): Active
Activity [5]: 0.39 µM
IC50 (Stromelysin-1; read-out: IC50): 17.5 µM
inhibition (Homo sapiens [6]): Dose-dependent effect

O=C1NC(=S)S/C1=C\c1cccc(OCc2ccccc2)c1
inhibition (Homo sapiens [1]): Dose-dependent effect
inhibition (Homo sapiens [2]): Active
IC50 (Collagenase 3): 5.89 µM
Activity [3]: Non-toxic
inhibition (Homo sapiens [4]): Active
Activity [5]: 0.63 µM
IC50 (Stromelysin-1): Not Active
inhibition (Homo sapiens [6]): Dose-dependent effect

O=C(O)CN1C(=O)/C(=C/c2ccc(OCc3ccccc3)cc2)SC1=S
inhibition (Homo sapiens [1]): Dose-dependent effect
inhibition (Homo sapiens [2]): Active
IC50 (Collagenase 3): 6.97 µM
Activity [3]: Non-toxic
inhibition (Homo sapiens [4]): Active
Activity [5]: 1.078 µM
IC50 (Stromelysin-1; read-out: IC50): 58.5 µM
inhibition (Homo sapiens [6]): Dose-dependent effect

O=C1NC(=S)S/C1=C\c1ccc(OCc2ccccc2)cc1
inhibition (Homo sapiens [1]): Dose-dependent effect
inhibition (Homo sapiens [2]): Active
IC50 (Collagenase 3): 0.64 µM
Activity [3]: Non-toxic
inhibition (Homo sapiens [4]): Active
Activity [5]: 0.6 µM
IC50 (Stromelysin-1; read-out: IC50): 77.4 µM
inhibition (Homo sapiens [6]): Dose-dependent effect
